The data set has as its target APOL1. The note with it: ASO.

Values joined by “and” are separate entries in the source; they are usually repeats but may differ in a detail not shown here. Equal values may be shown once. After the bases stand the sugars from the 5' end (letter, count) and the backbone: PS all phosphorothioate, else s phosphorothioate and o phosphodiester by linkage. Methylation of C is not given here. e = 2'-O-(2-methoxyethyl) (MOE); k = constrained ethyl (cEt); d = 2'-deoxy (DNA)

This passage reports target mRNA inhibition results from the OligoGym collection.

With “GGGTTATGAAATTATT (sugars kkddddkekekddddd, PS)”, the target mRNA inhibition (A431, 2 µM) amounted to 84%. Still for that read-out and setting: the same measure for “ACTTTATACCAGTGTC (sugars k2 d4 e3 k2 d5, PS)”: 91%; for “CACATCATTGGGTTAT (sugars kkdddddkekeddddd, PS)”: 77%. Take CACCATAGCACGAAGC (sugars k4 d9 k3, PS): the target mRNA inhibition by setting is: (A431, 0.0625 µM) 23%; (A431, 0.25 µM) 53%; (A431, 1 µM) 72%. Under “A431, 2 µM”, “ATTCTATTAGAGGGCT (sugars kkkddddkekekdddd, PS)” showed a target mRNA inhibition of 37%.

For ACAGCATTGAGTACAA (sugars k4 d9 k3, PS), the target mRNA inhibition by setting is: (A431, 0.0625 µM) 44%; (A431, 0.25 µM) 78%; (A431, 1 µM) 90%. Where the note is “A431, 2 µM”, “AATTCTATTAGAGGGC (sugars kkkddddkekekdddd, PS)” returned a target mRNA inhibition of 41%. Regarding “CTTTAAACTCAGGTGA (sugars k2 d4 e4 k2 d4, PS)”, the target mRNA inhibition (A431, 2 µM) amounted to 88%. Same read-out and setting: the same measure for “GTTTTGTAAGTGCAAC (sugars kdddddkekekddddd, PS)”: 92%; for “GTTCAAAAGCAGCATT (sugars kkkddddkekeddddd, PS)”: 85%. On to “TTATATTTGATCCTCA (sugars kkdddddkekeddddd, PS)”, for which the target mRNA inhibition by setting is: (A431, 0.0156 µM) 7%; (A431, 0.0625 µM) 38%; (A431, 0.25 µM) 74%; (A431, 1 µM) 92%; (A431, 2 µM) 96%. With ATTCTCATGGTACAGG (sugars k4 d9 k3, PS), the target mRNA inhibition by setting is: (A431, 0.0156 µM) 24%; (A431, 0.0625 µM) 49% and 50%; (A431, 0.25 µM) 83% and 84%; (A431, 1 µM) 94% and 93%. In the case of TCATTTGCTAGGTGCC (sugars k4 d9 k3, PS), the target mRNA inhibition by setting is: (A431, 0.0625 µM) 43%; (A431, 0.25 µM) 72%; (A431, 1 µM) 85%. As for “GTATTTCTTGATGTGG (sugars kddddkekekeddddd, PS)”, for the setting “A431, 2 µM”, the target mRNA inhibition amounted to 87%.

For the setting “A431, 2 µM”, “TTATGAAATTATTGGT (sugars kkddddekekeddddd, PS)” registered a target mRNA inhibition of 74%. The same measure, in the same setting: the same measure for “CATTCAGAATTTCCAC (sugars kkddddkekekddddd, PS)”: 76%; for “GTTATGAAATTATTGG (sugars kddddkekekeddddd, PS)”: 77%. Regarding TTCTTGATGTGGTGGG (sugars k4 d9 k3, PS), the target mRNA inhibition is, setting by setting: (A431, 0.0625 µM) 58%; (A431, 0.25 µM) 82%; (A431, 1 µM) 91%. In the case of GGTAAGAGCGATGGGA (sugars k3 d10 k3, PS), the target mRNA inhibition is, setting by setting: (A431, 0.0625 µM) 79%; (A431, 0.25 µM) 93%; (A431, 1 µM) 97%. With “GTTCTAACTCTTGGGC (sugars kkddddekekeddddd, PS)”, the target mRNA inhibition (A431, 2 µM) stood at 78%. “TTATACCAGTGTCTTC (sugars kddddkekekeddddd, PS)” had a target mRNA inhibition (A431, 2 µM) of 82%. Same read-out and setting: the same measure for “ATATCAGATGGGTACT (sugars k2 d4 e3 k2 d5, PS)”: 52%. Consider GAATGAGCAGGTCAGA (sugars k4 d9 k3, PS), for which the target mRNA inhibition by setting is: (A431, 0.0625 µM) 41%; (A431, 0.25 µM) 75%; (A431, 1 µM) 91%.

Under “A431, 2 µM”, “ATTCTCATGGTACAGG (sugars kkddddkekekkdddd, PS)” yielded a target mRNA inhibition of 34%. For AAGTGCAACCAATCAA (sugars k4 d9 k3, PS), the target mRNA inhibition by setting is: (A431, 0.0625 µM) 36%; (A431, 0.25 µM) 63%; (A431, 1 µM) 83%.

The sequence “ACGCAATGCTGACTTG (sugars kekddddeekkddddd, PS)” gave a target mRNA inhibition (A431, 2 µM) of 91%. On to CATTTGGAGATCTGGC (sugars k4 d9 k3, PS), for which the target mRNA inhibition runs as follows: (A431, 0.0625 µM) 57%; (A431, 0.25 µM) 74%; (A431, 1 µM) 92%.

As for “TGTTATATTTGATCCT (sugars kkkddddkekekdddd, PS)”, the target mRNA inhibition (A431, 2 µM) turned out to be 59%.

On to “TTGTAAGTGCAACCAA (sugars kkddddkekekddddd, PS)”, for which the target mRNA inhibition (A431, 2 µM) is 69%.

Sequence “CAGTTTTGTAAGTGCA (sugars kekddddeekkddddd, PS)” yielded a target mRNA inhibition (A431, 0.0156 µM) of 39%; a target mRNA inhibition (A431, 0.0625 µM) of 73%; a target mRNA inhibition (A431, 0.25 µM) of 92%; a target mRNA inhibition (A431, 1 µM) of 96%; a target mRNA inhibition (A431, 2 µM) of 96%.

Where the note is “A431, 2 µM”, “CCGTCAATATATTCTT (sugars kkkddddkekeddddd, PS)” returned a target mRNA inhibition of 97%. For the sequence “CACTTTATACCAGTGT (sugars kkkddddkekekdddd, PS)”, the target mRNA inhibition (A431, 2 µM) was 11%.

The sequence “CACATCATTGGGTTAT (sugars kkkddddkekekdddd, PS)” came in with a target mRNA inhibition (A431, 2 µM) of 58%. Regarding “CAGTTTTGTAAGTGCA (sugars kkdddddkekeddddd, PS)”, the target mRNA inhibition amounted to 25% (A431, 0.0156 µM); 53% (A431, 0.0625 µM); 84% (A431, 0.25 µM); 89% (A431, 1 µM); 94% (A431, 2 µM). Take “CTAATTTTCTGACTGT (sugars k2 d4 e4 k2 d4, PS)”: the target mRNA inhibition (A431, 2 µM) worked out at 88%. For “GTGTATTTCTTGATGT (sugars kkddddkekekddddd, PS)”, the target mRNA inhibition (A431, 2 µM) was found to be 95%. Turning to “GTTATATTTGATCCTC (sugars kkkddddkekekdddd, PS)”, the target mRNA inhibition (A431, 2 µM) is 66%. On the same count and under the same terms, the same measure for “GAGTATTGTTTTTGTG (sugars kkkddddkekekdddd, PS)”: 56%. Same read-out and setting: the same measure for “GAAGATTGGCTCTGGC (sugars kkkddddkekekdddd, PS)”: 16%. In the case of “CTAATTTTCTGACTGT (sugars kkdddddkekeddddd, PS)”, the target mRNA inhibition reads like this: (A431, 0.0156 µM) 27%; (A431, 0.0625 µM) 56%; (A431, 0.25 µM) 80%; (A431, 1 µM) 93%; (A431, 2 µM) 98%. “TCTATTAGAGGGCTAG (sugars kkkddddkekekdddd, PS)” yielded a target mRNA inhibition (A431, 2 µM) of 23%. On the same count and under the same terms, the same measure for “AGTATTGTTTTTGTGG (sugars k3 d4 k3 e1 d5, PS)”: 89%; for “CATTCAGAATTTCCAC (sugars k2 d4 e3 k2 d5, PS)”: 78%; for “GTAAGTATTGCCAGCT (sugars k2 d4 e3 k2 d5, PS)”: 89%. For the sequence “ATTCTATTAGAGGGCT (sugars kkkddddkekeddddd, PS)”, the target mRNA inhibition (A431, 2 µM) came to 73%. Same read-out and setting: the same measure for “GTTCAAAAGCAGCATT (sugars kkkddddkdkdkdddd, PS)”: 23%; for “AGTATTGCCAGCTAAG (sugars kkdddddkekeddddd, PS)”: 86%; for “GTGAGTATTGTTTTTG (sugars kkkddddkekekdddd, PS)”: 85%. On the same count and under the same terms, the same measure for “AGTATTGCCAGCTAAG (sugars kkddddkekekkdddd, PS)”: 34%; for “CTAATTTTCTGACTGT (sugars k2 d4 e3 k2 d5, PS)”: 83%. Still for that read-out and setting: the same measure for “TGTTCTAACTCTTGGG (sugars k3 d4 k3 e1 d5, PS)”: 89%. As to “CACTTTACATGCACGA (sugars kkddddddddddkeke, PS)”, the target mRNA inhibition runs as follows: (A431, 0.0156 µM) 16%; (A431, 0.0625 µM) 35%; (A431, 0.25 µM) 66%; (A431, 1 µM) 87%.

For “TTATATTTGATCCTCA (sugars kkkddddkekekdddd, PS)”, where the note is “A431, 2 µM”, the target mRNA inhibition was found to be 92%.

As for TTTTGTTGCACCCTTG (sugars k4 d9 k3, PS), the target mRNA inhibition was found to be 76% (A431, 0.0625 µM); 87% (A431, 0.25 µM); 92% (A431, 1 µM). Where the note is “A431, 2 µM”, “ATCAGATGGGTACTTC (sugars kkddddekekeddddd, PS)” returned a target mRNA inhibition of 73%. Still for that read-out and setting: the same measure for “TGGGAATTATGGAATT (sugars kkkddddkekekdddd, PS)”: 56%.

Turning to “GGAATTATGGAATTGC (sugars kkddddekekeddddd, PS)”, the target mRNA inhibition turned out to be 23% (A431, 0.0156 µM); 62% (A431, 0.0625 µM); 89% (A431, 0.25 µM); 97% (A431, 1 µM); 97% (A431, 2 µM). In turn, “GCATTCAGAATTTCCA (sugars kkkddddkekeddddd, PS)” returned a target mRNA inhibition (A431, 2 µM) of 84%.

The sequence “TTCTATTAGAGGGCTA (sugars k2 d4 e3 k2 d5, PS)” displayed a target mRNA inhibition (A431, 2 µM) of 87%. Take “GCTAATTTTCTGACTG (sugars kkkddddkekekdddd, PS)”: for the setting “A431, 2 µM”, the target mRNA inhibition turned out to be 88%.

As for “GAATTATGGAATTGCA (sugars kkddddkdkdkddddd, PS)”, the target mRNA inhibition (A431, 2 µM) amounted to 82%. For “GTGTATTTCTTGATGT (sugars kkkddddkekekdddd, PS)”, the target mRNA inhibition (A431, 2 µM) came to 84%. With “GTTCTAACTCTTGGGC (sugars kkddddkdkdkddddd, PS)”, the target mRNA inhibition reads like this: (A431, 0.0156 µM) 3%; (A431, 0.0625 µM) 28%; (A431, 0.25 µM) 59%; (A431, 1 µM) 75%; (A431, 2 µM) 90%. Sequence “AAGTATTGCCAGCTAA (sugars kkdddddkekeddddd, PS)” showed a target mRNA inhibition (A431, 2 µM) of 73%.

As for “GAAGATTGGCTCTGGC (sugars kkkddddkdkdkdddd, PS)”, for the setting “A431, 2 µM”, the target mRNA inhibition worked out at 51%.

On to CAAGTCAGTACAGAGC (sugars k4 d9 k3, PS), for which the target mRNA inhibition reads like this: (A431, 0.0625 µM) 57%; (A431, 0.25 µM) 82%; (A431, 1 µM) 94%.

Take “TGTTATATTTGATCCT (sugars k3 d4 k3 e1 d5, PS)”: the target mRNA inhibition (A431, 2 µM) was determined as 89%.

Turning to “AAGATTGGCTCTGGCT (sugars kkddddkekekkdddd, PS)”, the target mRNA inhibition (A431, 2 µM) came out at 2%. On the same count and under the same terms, the same measure for “CAGTTTTGTAAGTGCA (sugars kkkddddkekeddddd, PS)”: 92%. Turning to TGGATGGAAGGAACCT (sugars k4 d9 k3, PS), the target mRNA inhibition by setting is: (A431, 0.0625 µM) 3%; (A431, 0.25 µM) 44%; (A431, 1 µM) 36%.
